Columns and labels:
[1] = tested on: Total ATXN3 (tATXN3) protein; test: Endogenous Total ATXN3 (tATXN3) Protein Assay (MSD immunoassay of cell lysates); assay type: cell-based; conditions: average IC50, total ATXN3 protein in cell lysate after 48 h with compound (Table 1)
Procedure, shortened: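 By electrochemiluminescent MSD sandwich immunoassay (mouse monoclonal capture, rabbit monoclonal and SULFO-TAG anti-rabbit detection), endogenous ATXN3 was quantified in lysates of cells treated 48 h at 37° C at 10,000 cells/well. Treatment used a 7-point 3.16-fold duplicate dilution series, with average IC50 grouped into star categories.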

[2] = tested on: ATXN3 pre-mRNA; test: RT-qPCR Assay to Quantify Exon 4 Skipping in ATXN3 pre-mRNA in Cells; assay type: cell-based; conditions: percent exon 4 skipping in ATXN3 pre-mRNA, RT-qPCR of cell lysates; average IC50
Procedure, shortened: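 IC50 derives from a dose-response fit of percent exon 4 skipping, quantified by RT-qPCR on crude lysates. Compounds tested as 7-point 3.16-fold dilutions in duplicate; cells (10,000/well) were exposed for 24 h at 37 °C before lysis.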

Compound | IC50 [1] [nM] | IC50 [2] [nM]
N[C@H]1CC=CC[C@@H]1c1sc2c(NCc3ccccc3)cc(Cl)nc2c1Cl [Compound 207, 2-((1S,6S)-6-aminocyclohex-3-en-1-yl)-N-benzyl-3,5-dichlorothieno[3,2-b]pyridin-7-amine] | ≤ 30 | ≤ 30
N[C@H]1CCC[C@@H]1c1sc2c(NCc3ccco3)cc(Cl)nc2c1Br [Compound 165, 2-((1S,2S)-2-aminocyclopentyl)-3-bromo-5-chloro-N-(furan-2-ylmethyl)thieno[3,2-b]pyridin-7-amine] | ≤ 30 | ≤ 30
N[C@@H]1CCCCCC[C@H]1c1cc2nc(Cl)cc(NCc3cccs3)c2s1 [Compound 105, 2-((1R,2R)-2-aminocyclooctyl)-5-chloro-N-(thiophen-2-ylmethyl)thieno[3,2-b]pyridin-7-amine] | > 1000 | > 1000
N[C@@H]1CC=CC[C@H]1c1sc2c(NCc3ccccc3)nc(Cl)nc2c1Br [Compound 434, 6-((1R,6R)-6-aminocyclohex-3-en-1-yl)-N-benzyl-7-bromo-2-chlorothieno[3,2-d]pyrimidin-4-amine] | 30 to 300 | 30 to 300
N[C@@H]1CC=CC[C@H]1c1sc2c(NCc3ccccc3F)cc(Cl)nc2c1Br [Compound 411, 2-((1R,6R)-6-aminocyclohex-3-en-1-yl)-3-bromo-5-chloro-N-(2-fluorobenzyl)thieno[3,2-b]pyridin-7-amine] | 30 to 300 | 30 to 300
N[C@@H]1CCCC[C@H]1c1sc2c(NCc3ccco3)nc(Cl)nc2c1Br [Compound 67, 6-((1R,2R)-2-aminocyclohexyl)-7-bromo-2-chloro-N-(furan-2-ylmethyl)thieno[3,2-d]pyrimidin-4-amine] | 300 to 1000 | 300 to 1000
N[C@H]1CC=CC[C@@H]1c1sc2c(NCc3ccccc3)nc(Cl)nc2c1Cl [Compound 263, 6-((1S,6S)-6-aminocyclohex-3-en-1-yl)-N-benzyl-2,7-dichlorothieno[3,2-d]pyrimidin-4-amine] | 30 to 300 | 30 to 300
2-((1R,6S)-6-amino-2,2-difluorocyclohexyl)-3-bromo-5-chloro-N-(thiophen-2-ylmethyl)thieno[3,2-b]pyridin-7-amine and 2-((1S,6R)-6-amino-2,2-difluorocyclohexyl)-3-bromo-5-chloro-N-(thiophen-2-ylmethyl)thieno[3,2-b]pyridin-7-amine [Compound 269] | 30 to 300 | 30 to 300
Cc1c([C@H]2OCCC[C@@H]2N)sc2c(NCc3ccccc3F)cc(Cl)nc12 [Compound 33, 2-((2S,3S)-3-aminotetrahydro-2H-pyran-2-yl)-5-chloro-N-(2-fluorobenzyl)-3-methylthieno[3,2-b]pyridin-7-amine] | 30 to 300 | 30 to 300
Cc1c([C@@H]2OCCC[C@H]2N)sc2c(NCc3ccccc3)cc(Cl)nc12 [Compound 109, 2-((2R,3R)-3-aminotetrahydro-2H-pyran-2-yl)-N-benzyl-5-chloro-3-methylthieno[3,2-b]pyridin-7-amine] | 30 to 300 | 30 to 300
Cc1c([C@H]2CC=CC[C@@H]2N)sc2c(NCc3ccncc3)nc(Cl)nc12 [Compound 234, 6-((1S,6S)-6-aminocyclohex-3-en-1-yl)-2-chloro-7-methyl-N-(pyridin-4-ylmethyl)thieno[3,2-d]pyrimidin-4-amine] | ≤ 30 | ≤ 30
2-((3R,4S)-3-aminotetrahydro-2H-pyran-4-yl)-5-chloro-7-((thiophen-2-ylmethyl)amino)thieno[3,2-b]pyridine-3-carbonitrile and 2-((3S,4R)-3-aminotetrahydro-2H-pyran-4-yl)-5-chloro-7-((thiophen-2-ylmethyl)amino)thieno[3,2-b]pyridine-3-carbonitrile [Compound 393] | 300 to 1000 | ≤ 30
Cn1c([C@H]2CCOC[C@@H]2N)c(Br)c2nc(Cl)cc(NCc3cccs3)c21 [Compound 351, 2-((3R,4S)-3-aminotetrahydro-2H-pyran-4-yl)-3-bromo-5-chloro-1-methyl-N-(thiophen-2-ylmethyl)-1H-pyrrolo[3,2-b]pyridin-7-amine] | 30 to 300 | 30 to 300
C[C@@H]1C=CC[C@H](c2sc3c(NCc4cccs4)cc(Cl)nc3c2Br)[C@H]1N.C[C@H]1C=CC[C@@H](c2sc3c(NCc4cccs4)cc(Cl)nc3c2Br)[C@@H]1N (mixture of isomers) [Compound 294, 2-((1R,5S,6R)-6-amino-5-methylcyclohex-3-en-1-yl)-3-bromo-5-chloro-N-(thiophen-2-ylmethyl)thieno[3,2-b]pyridin-7-amine and 2-((1S,5R,6S)-6-amino-5-methylcyclohex-3-en-1-yl)-3-bromo-5-chloro-N-(thiophen-2-ylmethyl)thieno[3,2-b]pyridin-7-amine] | 30 to 300 | 30 to 300
Cc1c([C@H]2COCC[C@@H]2N)sc2c(NCc3cccs3)cc(Cl)nc12 [Compound 232, 2-((3R,4S)-4-aminotetrahydro-2H-pyran-3-yl)-5-chloro-3-methyl-N-(thiophen-2-ylmethyl)thieno[3,2-b]pyridin-7-amine] | ≤ 30 | ≤ 30
5-(5-chloro-2-((1R,6R)-6-(methylamino)cyclohex-3-en-1-yl)-7-((thiophen-2-ylmethyl)amino)thieno[3,2-b]pyridin-3-yl)pent-4-yn-1-ol and 5-(5-chloro-2-((1S,6S)-6-(methylamino)cyclohex-3-en-1-yl)-7-((thiophen-2-ylmethyl)amino)thieno[3,2-b]pyridin-3-yl)pent-4-yn-1-ol [Compound 288] | 30 to 300 | 30 to 300
2-((1R,5S,6S)-6-amino-5-methoxycyclohex-3-en-1-yl)-3-bromo-5-chloro-N-(thiophen-2-ylmethyl)thieno[3,2-b]pyridin-7-amine and 2-((1S,5R,6R)-6-amino-5-methoxycyclohex-3-en-1-yl)-3-bromo-5-chloro-N-(thiophen-2-ylmethyl)thieno[3,2-b]pyridin-7-amine [Compound 371] | 30 to 300 | 30 to 300
N[C@@H]1CC=CC[C@H]1c1sc2c(NCc3ccco3)cc(Cl)nc2c1Br [Compound 310, 2-((1R,6R)-6-aminocyclohex-3-en-1-yl)-3-bromo-5-chloro-N-(furan-2-ylmethyl)thieno[3,2-b]pyridin-7-amine] | 30 to 300 | 30 to 300
N[C@H]1COCC[C@@H]1c1sc2c(NCc3cccs3)cc(Cl)nc2c1Br [Compound 139, 2-((3R,4S)-3-aminotetrahydro-2H-pyran-4-yl)-3-bromo-5-chloro-N-(thiophen-2-ylmethyl)thieno[3,2-b]pyridin-7-amine] | 30 to 300 | ≤ 30
6-((1R,6R)-6-aminocyclohex-3-en-1-yl-2,2,3,4,5,5-d6)-7-bromo-2-chloro-N-(furan-2-ylmethyl)thieno[3,2-d]pyrimidin-4-amine and 6-((1S,6S)-6-aminocyclohex-3-en-1-yl-2,2,3,4,5,5-d6)-7-bromo-2-chloro-N-(furan-2-ylmethyl)thieno[3,2-d]pyrimidin-4-amine [Compound 200] | ≤ 30 | ≤ 30

— patent US20250382305A1 (PTC THERAPEUTICS, INC., priority 2022, published 2025)
